Source: patent US7271158B2, “Treatment of rumen acidosis with α-amylase inhibitors” (Pfizer Inc., priority 2000, dated 2007)

Key:
[1] = molecular target: rumen fluid supernatant amylases; experiment: Rumen bacterial amylase assay, protocol 2 (amylose azure); settings: read-out: Average IC50, rumen fluid amylase screen
[2] = molecular target: rumen fluid supernatant amylases; experiment: Rumen bacterial amylase assay, protocol 1 (Sigma amylase kit 577); format: biochemical, rumen bacteria, Hereford×Friesian calves; settings: for IC50: rumen fluid amylase screen using Sigma kit 577
Description: Rumen Bacterial Amylase Assay—Protocol 1
The enzymatic reactions involved in the assay are as follows:
5 ET-G7PNP→(α-amylase)→2 ET-G5+2 G2PNP+2 ET-G4+2 G3PNP+ET-G3+G4-PNP2 G2PNP+2 G3 PNP→(α-glucosidase)→4 PNP +10 glucose
α-Amylase hydrolyses 4,6-ethylidene-G7-PNP (ET-G7 PNP) to G2, G3 and G4 PNP fragments. α-Glucosidase (α-1,4-glucan glucohydrolase EC 3.2.1.3) hydrolyses G2PNP and G3PNP to yield p-nitrophenol and glucose. Five moles of substrate (ET-G7PNP) is hydrolysed to yield 4 moles of p-nitrophenol p-Nitrophenol absorbs light as 405 nm, and following a two minute lag period the rate of increase in absorbance at 405 nm is directly proportional to α-amylase activity in the well.
Rumen fluid was collected from 4-month-old Hereford×Friesian calves (125–135 kg, supplied by Cwmnant Calves Ltd. Cwmnant. Tregaron. Ceredigion) fed on diet GH 313. The rumen fluid was collected from slaughtered calves into pre-warmed vacuum flasks, as soon as possible after euthanasia. It was then filtered through a double layer of absorbent gauze (Absorbent gauze BP, GAUZ 4 from Robert Bailey plc, Stockport) to remove hay and feed particles. The liquid was centrifuged at a relative centrifugal force of 23,300 for 60 minutes, and the supernatant decanted, avoiding contamination from the loose top layer of the pellet by careful pouring. The supernatant was then aliquoted into 50 ml plastic tubes and frozen at […]. When required for use in an assay the rumen fluid supernatant was thawed by standing the tubes in cold water. Test compounds or controls were dispensed into the 96-well assay plate at 4 μl/well. 100 μl per well of Sigma amylase reagent 577 (made up to half the volume described in the instructions (i.e. 10 ml for a 577-20 vial)) was then added to each well, followed by 100 μl per well of rumen fluid supernatant. A T=0 reading at 405 nm was taken at this stage using an Anthos plate reader. The plate was then incubated at room temperature or 37° C. until an optical density window of approximately 1.000U was seen (typically one hour at 37° C. or three hours at room temperature). A second reading was taken at 405 nm, and the first reading subtracted from it. Active compounds cause a reduction in the optical density readings when compared to the control without the agent being tested.

[3] = system: bacterial glucosidase activity from bovine rumen fluid cell suspension; experiment: Rumen fluid glucosidase assay; format: biochemical, bovine rumen bacteria; settings: rumen fluid glucosidase screen, maltose substrate
Description: Rumen Fluid Glucosidase Assay Protocol This assay is used to determine IC50 values for inhibitors of bacterial glucosidase activity from bovine rumen fluid cell suspension (RFCS) using a colorimetric assay. The assay measures conversion of maltose into glucose. Rumen fluid cells are incubated with maltose in the presence of inhibitors, and the amount of glucose produced is assessed using a red colourimetric endpoint. The higher the level of inhibition the lower the glucose produced and the less red colour produced. The plates are read at 450 nm. Main reaction: • Maltose+glucosidase→glucose Glucose assay • Glucose+ATP→[…] and ADP (Hexokinase and Mg^2+) • […] and NADP→6-phosphogluconate (6-PG) and NADPH • NADPH+phenazine methosulfate ([…] (iodonitrotetrazolium chloride)→[…] is deep red coloured. […] The rumen fluid was collected into pre-warmed vacuum flasks. It was then filtered through a double layer of absorbent gauze (Absorbent gauze BP, GAUZ 4 from Robert Bailey plc, Stockport) to remove hay and feed particles. The liquid was centrifuged at a relative centrifugal force of 650 for 15 minutes to remove food particles and protozoa. The supernatant was decanted into fresh tubes and centrifuged at a relative centrifugal force of 23,300 for 60 minutes. The supernatant and the loose top layer of the pellet were discarded. The pellet was resuspended in PBS at 1:8 of original volume i.e. 50 ml of PBS for the pellet from 400 ml of rumen fluid, and frozen at -20° C. When required for use the cells were thawed by standing the tube in cold water, and then diluted to […] of cells/well (45 μl/ml). Test compounds or controls were dispensed into the 96-well assay plate at 2 μl/well, followed by 50 μl per well of 10 mM maltose and 50 μl/well of rumen fluid cell suspension. The plate was incubated at 37° C. for 1 hour. Sigma glucose detection kit […] was reconstituted by addition of 17 ml of Millipore water and 4 ml of colour reagent to each vial. 100 μl of this solution was added per well and the plate returned to the 37° C. incubator for 45 minutes. The plate was then read at 450 nm. Active compounds cause a reduction in the optical density readings when compared to the no-inhibitor control wells.

[4] = system: rumen fluid fermentation (RUSITEC chronic acidosis model); experiment: RUSITEC rumen simulation, chronic acidosis model: Example 8 and acarbose; format: cell-based, cow; settings: for proportional increase in butyrate production: treatment period vs control period (no treatment: 1%); for change in total VFA production: vs preceding control period (no treatment: −11%)
Description: RUSITEC Result using Example 8 and Acarbose
Daily maintenance procedures as previously described for Acarbose.
Rumen fluid donor cow—Fed GH313Pellets plus barley straw.
Daily Feed—30 g GH313 pellets plus 2.5 g chopped barley straw.
Acarbose: 1 tablet added to each bag to give 100 mg/vessel/d
Example 8: Eight×57 mg pre-weighed samples stored in fridge in […]. On the day before the feed bags were to be placed in RUSITEC, a 57 mg sample was dissolved in 2.28 ml buffer (25 mg/ml). 0.21 ml of this solution was added to 1.9 ml buffer to give a 2.5 mg/ml solution. 1 ml of each solution was added to a prepared feed bag to give 25 and 2.5 mg/vessel/d. and dried overnight at room temperature.

Structure (SMILES) | IC50 [1] | IC50 [2] | IC50 [3] | increase in mean daily pH ([4]; 0.02 mM) | proportional increase in butyrate production ([4]; 2.5 mg per vessel per day) | change in total VFA production ([4]; 2.5 mg per vessel per day) | proportional increase in butyrate production ([4]; 25 mg per vessel per day) | change in total VFA production ([4]; 25 mg per vessel per day) | effect in the amylase screen [2]
C[C@H]1O[C@H](O[C@@H]2[C@H](O)[C@H](O)[C@@H](O[C@@H]3[C@H](O)[C@@H](O)[C@@H](O[C@@H]4[C@H](O)[C@H](O)[C@@H](O[C@H]5O[C@@H](CO)[C@H](O)[C@H](O)[C@H]5O)O[C@@H]4CO)O[C@@H]3CO)O[C@H]2CO)[C@H](O)[C@@H](O)[C@@H]1N[C@H]1C=C(CO)[C@@H](O[C@H]2O[C@H](CO)[C@H](O[C@H]3O[C@H](C)[C@@H](N[C@H]4C=C(CO)[C@@H](O)[C@H](O)[C@H]4O)[C@H](O)[C@H]3O)[C@H](O)[C@H]2O)[C@H](O)[C@H]1O (stereo in doubt) [Trestatin A] | 0.79 µM | 0.17 µM | 33.6 µM | – | – | – | – | – | –
CC1OC(OC2C(CO)OC(OC3C(CO)=CC(NC4C(C)OC(OC5C(CO)OC(OC6C(CO)OC(OC7C(CO)OC(OC8C(CO)OC(O)C(O)C8O)C(O)C7O)C(O)C6O)C(O)C5O)C(O)C4O)C(O)C3O)C(O)C2O)C(O)C(O)C1NC1C=C(CO)C(O)C(O)C1O (centres unmarked) [Example 8] | 9.45 µM | 0.44 µM | 13.1 µM | 0.3 units | 18% | −1% | 20% | −8% | –
CC1OC(OC2C(CO)OC(OC3C(CO)OC(OC4C(CO)OC(OC5C(CO)OC(O)C(O)C5O)C(O)C4O)C(O)C3O)C(O)C2O)C(O)C(O)C1NC1C=C(CO)C(O)C(O)C1O (centres unmarked) [Example 7] | – | – | 6.38 µM | – | – | – | – | – | inhibiting effect
CC1OC(OC2C(CO)OC(OC3C(CO)=CC(NC4C(C)OC(OC5C(CO)OC(OC6C(CO)OC(OC7C(CO)OC(O)C(O)C7O)C(O)C6O)C(O)C5O)C(O)C4O)C(O)C3O)C(O)C2O)C(O)C(O)C1NC1C=C(CO)C(O)C(O)C1O (centres unmarked) [Example V-1532] | 2.07 µM | 0.57 µM | 65.5 µM | – | – | – | – | – | –
C[C@H]1O[C@H](O[C@@H]2[C@H](O)[C@@H](O)[C@@H](O[C@@H]3[C@H](O)[C@@H](O)[C@@H](O[C@@H]4[C@H](O)[C@H](O)[C@@H](O[C@H]5O[C@H](CO)[C@H](O)[C@H](O)[C@H]5O)O[C@@H]4CO)O[C@@H]3CO)O[C@H]2CO)[C@@H](O)[C@@H](O)[C@@H]1N[C@@H]1C=C(CO)[C@@H](O)[C@@H](O)[C@@H]1O (stereo in doubt) [Trestatin B] | – | 2.89 µM | 4.1 µM | – | – | – | – | – | –
C[C@H]1O[C@H](O[C@H]2[C@H](O)[C@@H](O)[C@@H](O[C@H]3[C@H](O)[C@@H](O)[C@@H](O[C@H]4[C@H](O)[C@@H](O)[C@@H](O[C@H]5O[C@H](CO)[C@@H](O)[C@H](O)[C@H]5O)O[C@@H]4CO)O[C@@H]3CO)O[C@@H]2CO)[C@H](O)[C@@H](O)[C@@H]1N[C@H]1C=C(CO)[C@@H](O[C@H]2O[C@H](CO)[C@@H](O[C@H]3O[C@H](C)[C@@H](NC4C=C(CO)[C@@H](O[C@H]5O[C@H](CO)[C@@H](O[C@H]6O[C@H](C)[C@@H](NC7C=C(CO)[C@@H](O)[C@H](O)[C@H]7O)[C@H](O)[C@H]6O)[C@H](O)[C@H]5O)[C@H](O)[C@H]4O)[C@H](O)[C@H]3O)[C@H](O)[C@H]2O)[C@H](O)[C@H]1O (some centres unmarked) [Trestatin C] | – | 0.09 µM | 148 µM | – | – | – | – | – | –
